Earlier results as cited in publication PMC12123727 (BMC Cancer, 2025).

How the values were obtained:
DLBCL = conditions: patients with DLBCL, 2/19; cited from earlier work
r/r FL = conditions: patients with r/r FL, cited from earlier work

Row | SMILES | ORR (DLBCL) [%] | objective response rate (ORR) (r/r FL; 19/39) [%] | median PFS (r/r FL) [months]
1 | O=C(/C=C/c1cccc(S(=O)(=O)Nc2ccccc2)c1)NO [Belinostat, belinostat] | 10.5 |  | 
2 | O=C(CCCCCCC(=O)Nc1ccccc1)NO [Vorinostat, vorinostat] |  | 49 | 20
